What was measured:
[1] = target: HCV genotype 1b replicon; assay: HCV genotype 1b replicon assay (Renilla luciferase readout); format: cell-based, hepatitis C virus; details: for Genotype 1b: HCV genotype 1b replicon; for EC50: Hepatitis C virus, read-out: Genotype 1b
Outline: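 Huh7-derived APC144 subgenomic replicon cells carrying Renilla luciferase–NS3-NS5B, seeded 10,000/well without G418, then treated with compound dose-responses for 48 h at 37 °C (0.5% DMSO final). Luciferase signal fitted by 4-parameter model to EC50, reported as pEC50.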

[2] = tested on: HCV genotype 1a replicon; assay: HCV genotype 1a replicon assay (NS3 protease activity readout); format: cell-based, hepatitis C virus; details: for Genotype 1a: HCV genotype 1a replicon; for EC50: Hepatitis C virus, read-out: Genotype 1a, HCV genotype 1a replicon
Outline: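 Genotype 1a subgenomic replicon cells (APC89, Huh7.5) were treated with compound dose-responses in G418-free medium, 0.5% DMSO final, for 48 or 72 hours at 37° C. Lysate NS3/4a protease activity measured with 15 μM FRET substrate, 20 min at 37° C (ex 340/em 509 nm); EC50 by 4-parameter fit.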

Structure (SMILES) | Genotype 1b [1] | Genotype 1a [2] | EC50 [1] [nM] | EC50 [2] [nM]
COC(=O)N[C@H](C(=O)N1C[C@@H](C)C[C@H]1c1nc(-c2ccc(-c3ccc(C(=O)Nc4ccc(N5C[C@H](C)N(C(=O)[C@H]6CCCN6C(=O)C6CC6)C[C@H]5C)nc4)cc3OC(F)(F)F)cc2)c[nH]1)C(C)C [Example 4-18] | D (D represents pEC50>10 (EC50<0.1 nM)) | D (D represents pEC50>10 (EC50<0.1 nM)) | – | –
COC(=O)N[C@H](C(=O)N1C[C@@H](C)C[C@H]1c1nc(-c2ccc(-c3cc(Cl)c(C(=O)Nc4ccc(N5CCN(C(=O)C(C)(C)C)[C@H](C)C5)nc4)cc3OC(F)(F)F)cc2)c[nH]1)C1CCOCC1 [24-3] | D (D represents pEC50>10 (EC50<0.1 nM)) | C (C represents pEC50 between and 9 and about 10, (EC50 between 1 nM and 0.1 nM)) | – | –
COC(=O)NC(C(=O)N1C(C)CCC1c1nc(-c2ccc(-c3cc(Cl)c(NC(=O)c4ccc(N5CCN(C(=O)C6CC6(C)C)CC5C)nc4)cc3OC(F)(F)F)cc2)c[nH]1)C(C)C (centres unmarked) [Example 17-4] | D (D represents pEC50>10 (EC50<0.1 nM)) | D (D represents pEC50>10 (EC50<0.1 nM)) | – | –
COC(=O)N[C@H](C(=O)N1C[C@@H](C)C[C@H]1c1nc(-c2ccc(-c3cc(Cl)c(NC(=O)c4ccc(N5C[C@H](C)N(C(=O)[C@H]6CC6(C)C)C[C@H]5C)nc4)cc3OC(F)(F)F)cc2)c[nH]1)C(C)C [Example 1-20] | D (D represents pEC50>10 (EC50<0.1 nM)) | D (D represents pEC50>10 (EC50<0.1 nM)) | – | –
[2H]C([2H])([2H])C1(C([2H])([2H])[2H])CC1C(=O)N1CCN(c2ccc(C(=O)Nc3cc(OC(F)(F)F)c(-c4ccc(-c5c[nH]c([C@@H]6C[C@H](C)CN6C(=O)[C@@H](NC(=O)OC)C(C)C)n5)cc4)cc3F)cn2)[C@H](C)C1 (some centres unmarked) [Example 1-92] | D (D represents pEC50>10 (EC50<0.1 nM)) | D (D represents pEC50>10 (EC50<0.1 nM)) | – | –
COC(=O)N[C@H](C(=O)N1C[C@@H](C)C[C@H]1c1nc(-c2ccc(-c3cc(Cl)c(NC(=O)c4ccc(N5CCN(C(=O)C(C)(C)C)C[C@H]5C)nc4)cc3C(F)(F)F)cc2)c[nH]1)C1CCOCC1 [Example 19-2] | D (D represents pEC50>10 (EC50<0.1 nM)) | D (D represents pEC50>10 (EC50<0.1 nM)) | – | –
COC(=O)NC(C(=O)N1CC(OC)CC1c1nc(-c2ccc(-c3cc(F)c(NC(=O)c4ccc(N5CCN(C(=O)C(C)(C)CO)CC5C)nc4)cc3OC(F)(F)F)cc2)c[nH]1)C(C)OC (centres unmarked) [Example 16-13] | D (D represents pEC50>10 (EC50<0.1 nM)) | D (D represents pEC50>10 (EC50<0.1 nM)) | – | –
COC(=O)N[C@H](C(=O)N1C[C@@H](OC)C[C@H]1c1nc(-c2ccc(-c3cc(Cl)c(NC(=O)c4ccc(N5CCN(C(=O)C(C)(C)C)C[C@H]5C)nc4)cc3OC(F)(F)F)cc2)c(CO)[nH]1)C1CCOCC1 [Example 28-15] | D (D represents pEC50>10 (EC50<0.1 nM)) | D (D represents pEC50>10 (EC50<0.1 nM)) | – | –
COC(=O)N[C@H](C(=O)N1C[C@@H](C)C[C@H]1c1nc(-c2ccc(-c3cc(F)c(NC(=O)c4ccc(N5C[C@H](C)N(C(=O)[C@H]6CC6(C)C)C[C@H]5C)nc4)cc3OC(F)(F)F)cc2)c[nH]1)C(C)C [Example 1-13] | D (D represents pEC50>10 (EC50<0.1 nM)) | D (D represents pEC50>10 (EC50<0.1 nM)) | – | –
COC(=O)N[C@H](C(=O)N1C[C@@H](C)C[C@H]1c1nc(-c2ccc(-c3cc(Cl)c(NC(=O)c4ccc(N5CCN(C(=O)C(C)(C)C)[C@H](C)C5)nc4)cc3OC(F)(F)F)cc2)c[nH]1)C1CCOCC1 [Example 20-6] | D (D represents pEC50>10 (EC50<0.1 nM)) | D (D represents pEC50>10 (EC50<0.1 nM)) | – | –
COC(=O)N[C@H](C(=O)N1C[C@@H](C)C[C@H]1c1nc(-c2ccc(-c3ccc(C(=O)Nc4ccc(N5CCN(C(=O)[C@]6(C)CCCN6C(=O)[C@@H](NC(=O)OC)C(C)C)C[C@H]5C)nc4)cc3)cc2)c[nH]1)C(C)C [Example 4-2] | D (D represents pEC50>10 (EC50<0.1 nM)) | D (D represents pEC50>10 (EC50<0.1 nM)) | – | –
CNC(=O)N1C[C@@H](C)N(c2ccc(C(=O)Nc3cc(C(F)(F)F)c(-c4ccc(-c5c[nH]c([C@@H]6C[C@H](C)CN6C(=O)[C@@H](NC(=O)OC)C(C)C)n5)cc4)cc3F)cn2)C[C@@H]1C [Example 1-8] | D (D represents pEC50>10 (EC50<0.1 nM)) | D (D represents pEC50>10 (EC50<0.1 nM)) | – | –
CNC(=O)N1C[C@@H](C)N(c2ccc(C(=O)Nc3cc(C(F)(F)F)c(-c4ccc(-c5c[nH]c([C@@H]6C[C@H](C)CN6C(=O)[C@@H](NC(=O)OC)C(C)C)n5)cc4)cc3Cl)cn2)C[C@@H]1C [Example 1-12] | D (D represents pEC50>10 (EC50<0.1 nM)) | D (D represents pEC50>10 (EC50<0.1 nM)) | – | –
COC(=O)N[C@H](C(=O)N1C[C@@H](OC)C[C@H]1c1nc(-c2ccc(-c3cc(Cl)c(NC(=O)c4ccc(N5CCN(C(=O)C(C)(C)C)C[C@H]5C)nc4)cc3OC(F)(F)F)cc2)c[nH]1)C(C)(C)O [Example 16-1] | D (D represents pEC50>10 (EC50<0.1 nM)) | D (D represents pEC50>10 (EC50<0.1 nM)) | – | –
COC(=O)NC(C(=O)N1CC(C)CC1c1nc(-c2ccc(-c3ccc(NC(=O)c4ccc(N5CCN(C(=O)C(C)(C)CO)CC5C)nc4)cc3OC(F)(F)F)cc2)c[nH]1)C(C)(C)O (centres unmarked) [Example 13-28] | D (D represents pEC50>10 (EC50<0.1 nM)) | D (D represents pEC50>10 (EC50<0.1 nM)) | – | –
COC(=O)NC(C(=O)N1CC(OC)CC1c1nc(-c2ccc(-c3cc(F)c(NC(=O)c4ccc(N5CCN(C(=O)C(C)(C)C)CC5C)nc4)cc3OC(F)(F)F)cc2)c[nH]1)C(C)OC (centres unmarked) [Example 16-5] | D (D represents pEC50>10 (EC50<0.1 nM)) | D (D represents pEC50>10 (EC50<0.1 nM)) | – | –
COCC(=O)N1CCC[C@@]1(C)C(=O)N1CCN(c2ccc(NC(=O)c3ccc(-c4ccc(-c5c[nH]c([C@@H]6C[C@H](SC)CN6C(=O)[C@@H](NC(=O)OC)C(C)C)n5)cc4)c(OC(F)(F)F)c3)cn2)[C@H](C)C1 [Example 6-10] | – | – | < 0.1 | < 0.1
COC(=O)N[C@H](C(=O)N1C[C@@H](OC)C[C@H]1c1nc(-c2ccc(-c3cc(Cl)c(NC(=O)c4ccc(N5CCN(C(=O)[C@]67C[C@H]6CCN7)C[C@H]5C)nc4)cc3OC(F)(F)F)cc2)c[nH]1)C(C)C [Example 27-5] | D (D represents pEC50>10 (EC50<0.1 nM)) | D (D represents pEC50>10 (EC50<0.1 nM)) | – | –
COC(=O)NC(C(=O)N1C[C@@H](C)C[C@H]1c1nc(-c2ccc(-c3cc(Cl)c(NC(=O)c4ccc(N5CCN(C(=O)C(C)(C)C)C[C@H]5C)nc4)cc3C(F)(F)F)cc2)c[nH]1)C1CCS(=O)(=O)CC1 (single isomer, unassigned) [Example 19-6] | D (D represents pEC50>10 (EC50<0.1 nM)) | D (D represents pEC50>10 (EC50<0.1 nM)) | – | –
COC(=O)N[C@H](C(=O)N1C[C@@H](C)C[C@H]1c1nc(-c2ccc(-c3cc(F)c(NC(=O)c4ccc(N5C[C@H](C)N(C(=O)[C@H]6CC6(C)C)C[C@H]5C)nc4)cc3C(F)(F)F)cc2)c[nH]1)C(C)C [Example 1-7] | D (D represents pEC50>10 (EC50<0.1 nM)) | D (D represents pEC50>10 (EC50<0.1 nM)) | – | –
COC(=O)NC(C(=O)N1CC(OC)CC1c1nc(-c2ccc(-c3cc(Cl)c(NC(=O)c4ccc(N5CCN(C(=O)C(C)(C)CO)CC5C)nc4)cc3OC(F)(F)F)cc2)c[nH]1)C(C)O (centres unmarked) [Example 16-7] | D (D represents pEC50>10 (EC50<0.1 nM)) | D (D represents pEC50>10 (EC50<0.1 nM)) | – | –
COC(=O)N[C@H](C(=O)N1C[C@@H](C)C[C@H]1c1nc(-c2ccc(-c3cc(Cl)c(C(=O)Nc4ccc(N5CCN(C(=O)C(C)(C)C)C[C@@H]5C)nc4)cc3OC(F)(F)F)cc2)c[nH]1)C1CCOCC1 [24-1] | D (D represents pEC50>10 (EC50<0.1 nM)) | C (C represents pEC50 between and 9 and about 10, (EC50 between 1 nM and 0.1 nM)) | – | –
COC(=O)N[C@H](C(=O)N1C[C@@H](C)C[C@H]1c1nc(-c2ccc(-c3cc(F)c(NC(=O)c4ccc(N5CCN(C(=O)[C@H]6CC6(C)C)C[C@H]5C)nc4)cc3F)cc2)c[nH]1)C(C)C [Example 1-81] | D (D represents pEC50>10 (EC50<0.1 nM)) | D (D represents pEC50>10 (EC50<0.1 nM)) | – | –
COC(=O)N[C@H](C(=O)N1C[C@@H](C)C[C@H]1c1nc(-c2ccc(-c3cc(Cl)c(NC(=O)c4ccc(N5CCN(C(=O)N(C)OC)C[C@H]5C)nc4)cc3OC(F)(F)F)cc2)c[nH]1)C(C)C [Example 12-1] | – | – | < 0.1 | < 0.1
CNC(=O)N1CCN(c2ccc(C(=O)Nc3cc(OC(F)(F)F)c(-c4ccc(-c5c[nH]c([C@@H]6C[C@H](C)CN6C(=O)[C@@H](NC(=O)OC)C(C)C)n5)cc4)cc3Cl)cn2)[C@H](C)C1 [Example 1-17] | D (D represents pEC50>10 (EC50<0.1 nM)) | D (D represents pEC50>10 (EC50<0.1 nM)) | – | –

From patent US9212168B2 (priority 2011, dated 2015)
